According to US11986532B2 (Arvinas Operations, Inc., priority 2021, dated 2024):
Like-named read-outs stand apart in the source and are kept apart here.

Molecular target: T1, BCL6 (Homo sapiens, UniProt P41182)
T1 construct: endogenous in cells; host or cells: T47D breast cancer epithelial cells
Experiment: Immunofluorescence protocol for high content imaging of BCL6 (degradation) in T47D cells, 3 days compound treatment
Type: cell-based
Settings: for DC50: read-out: Mean DC50 (nM)* category; for Dmax: read-out: Mean Dmax (%)** category
In short: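 Cells are seeded to reach ~70-90% confluence at endpoint, then dosed next day with compound at a final top concentration of 0.1 or 1 μM (11 points, 3-fold). After 3 days, BCL6 is detected by immunofluorescence and quantified by high-content imaging.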

[1] = T47D cells, 3 days compound treatment

Row | SMILES | DC50 [1] [nM] | Dmax [1] [%] | Dmax (T47D) [%] | DC50 [nM]
1 | CCn1c(=O)c(OCC(=O)NC)cc2cc(Nc3nc(N4CCC(O[C@H]5C[C@H](N6CCC(c7cccc8c7C(=O)N(C7CCC(=O)NC7=O)C8=O)CC6)C5)CC4)ncc3Cl)ccc21 (some centres unmarked) [Compound 140, 2-({6-[(5-chloro-2-{4-[(1r,3r)-3-{4-[2-(2,6-dioxopiperidin-3-yl)-1,3-dioxo-2,3-dihydro-1H-isoindol-4-yl]piperidin-1-yl}cyclobutoxy]piperidin-1-yl}pyrimidin-4-yl)amino]-1-ethyl-2-oxo-1,2-dihydroquinolin-3-yl}oxy)-N-methylacetamide] | 50 to 100 | ≥ 70 | – | –
2 | CNC(=O)COc1cc2cc(Nc3nc(N4CCC(O[C@H]5C[C@H](N6[C@@H](C)CN(c7ccc8c(c7)CN(C7CCC(=O)NC7=O)C8=O)C[C@@H]6C)C5)CC4)ncc3Cl)ccc2n(C(C)C)c1=O (stereo partly drawn) [Compound 254, 2-({6-[(5-chloro-2-{4-[(1r,3r)-3-[(2S,6S)-4-[2-(2,6-dioxopiperidin-3-yl)-1-oxo-2,3-dihydro-1H-isoindol-5-yl]-2,6-dimethylpiperazin-1-yl]cyclobutoxy]piperidin-1-yl}pyrimidin-4-yl)amino]-2-oxo-1-(propan-2-yl)-1,2-dihydroquinolin-3-yl}oxy)-N-methylacetamide] | – | – | ≥ 70 | < 10
3 | CNC(=O)COc1cc2cc(Nc3nc(N4CCC5(CCN(CC6CCN(c7cccc8c7CN(C7CCC(=O)NC7=O)C8=O)CC6)C5)C4)ncc3Cl)ccc2n(C(C)C)c1=O (centres unmarked) [Compound 12, 2-{[6-({5-chloro-2-[7-({1-[2-(2,6-dioxopiperidin-3-yl)-1-oxo-2,3-dihydro-1H-isoindol-4-yl]piperidin-4-yl}methyl)-2,7-diazaspiro[4.4]nonan-2-yl]pyrimidin-4-yl}amino)-2-oxo-1-(propan-2-yl)-1,2-dihydroquinolin-3-yl]oxy}-N-methylacetamide] | < 10 | 50 to 70 | – | –
4 | CNC(=O)COc1cc2cc(Nc3nc(N4CCC(O[C@H]5C[C@H](N6CCC(c7ccc8c(c7)CN(C7CCC(=O)NC7=O)C8=O)C(F)(F)C6)C5)CC4)ncc3Cl)ccc2n(C(C)C)c1=O (some centres unmarked) [Compound 218, 2-[[6-[[5-chloro-2-[4-[3-[4-[2-(2,6-dioxo-3-piperidyl)-1-oxo-isoindolin-5-yl]-3,3-difluoro-1-piperidyl]cyclobutoxy]-1-piperidyl]pyrimidin-4-yl]amino]-1-isopropyl-2-oxo-3-quinolyl]oxy]-N-methyl-acetamide] | – | – | ≥ 70 | < 10
5 | CNC(=O)COc1cc2cc(Nc3nc(N4CCC(O[C@H]5C[C@H](N6C[C@@H](C)N(c7ccc8c(c7)CN(C7CCC(=O)NC7=O)C8=O)[C@@H](C)C6)C5)CC4)ncc3Cl)ccc2n(C(C)C)c1=O (stereo partly drawn) [Compound 174, 2-({6-[(5-chloro-2-{4-[(1r,3r)-3-[(3R,5S)-4-[2-(2,6-dioxopiperidin-3-yl)-1-oxo-2,3-dihydro-1H-isoindol-5-yl]-3,5-dimethylpiperazin-1-yl]cyclobutoxy]piperidin-1-yl}pyrimidin-4-yl)amino]-2-oxo-1-(propan-2-yl)-1,2-dihydroquinolin-3-yl}oxy)-N-methylacetamide] | < 10 | ≥ 70 | – | –
6 | CNC(=O)COc1cc2cc(Nc3nc(N4CCC(CN5CCC6(CC5)CN(c5cc(OC)c7c(c5)C(=O)N(C5CCC(=O)NC5=O)C7=O)C6)CC4)ncc3Cl)ccc2n(C(C)C)c1=O (centres unmarked) [Compound 83, 2-{[6-({5-chloro-2-[4-({2-[2-(2,6-dioxopiperidin-3-yl)-7-methoxy-1,3-dioxo-2,3-dihydro-1H-isoindol-5-yl]-2,7-diazaspiro [3.5]nonan-7-yl}methyl)piperidin-1-yl]pyrimidin-4-yl}amino)-2-oxo-1-(propan-2-yl)-1,2-dihydroquinolin-3-yl]oxy}-N-methylacetamide] | < 10 | 50 to 70 | – | –
7 | CNC(=O)COc1cc2cc(Nc3nc(N4CCC(O[C@H]5C[C@H](N6CCN(c7ccc8c(c7F)CN([C@@H]7CCC(=O)NC7=O)C8=O)[C@H](C)C6)C5)CC4)ncc3Cl)ccc2n(C(C)C)c1=O [Compound 395, 2-({6-[(5-chloro-2-{4-[(1r,3r)-3-[(3R)-4-{2-[(3R)-2,6-dioxopiperidin-3-yl]-4-fluoro-1-oxo-2,3-dihydro-1H-isoindol-5-yl}-3-methylpiperazin-1-yl]cyclobutoxy]piperidin-1-yl}pyrimidin-4-yl)amino]-2-oxo-1-(propan-2-yl)-1,2-dihydroquinolin-3-yl}oxy)-N-methylacetamide] | – | – | ≥ 70 | < 10

Next, values leading:

Row | DC50 [1] [nM] | Dmax [1] [%] | Dmax (T47D) [%] | DC50 [nM] | SMILES
8 | – | – | ≥ 70 | < 10 | CNC(=O)COc1cc2cc(Nc3nc(N4CCC(CN5CCC6(CC5)CCN6c5ccc6c(c5)C(=O)N(C5CCC(=O)NC5=O)C6=O)CC4)ncc3Cl)ccc2n(C(C)C)c1=O (centres unmarked) [Compound 335, 2-{[6-({5-chloro-2-[4-({1-[2-(2,6-dioxopiperidin-3-yl)-1,3-dioxo-2,3-dihydro-1H-isoindol-5-yl]-1,7-diazaspiro[3.5]nonan-7-yl}methyl)piperidin-1-yl]pyrimidin-4-yl}amino)-2-oxo-1-(propan-2-yl)-1,2-dihydroquinolin-3-yl]oxy}-N-methylacetamide]
9 | < 10 | 50 to 70 | – | – | CNC(=O)COc1cc2cc(Nc3nc(N4CCC5(CCN(CC6(F)CCN(c7c(F)ccc8c7CN(C7CCC(=O)NC7=O)C8=O)CC6)CC5)CC4)ncc3Cl)ccc2n(C(C)C)c1=O (centres unmarked) [Compound 96, 2-{[6-({5-chloro-2-[9-({1-[2-(2,6-dioxopiperidin-3-yl)-5-fluoro-1-oxo-2,3-dihydro-1H-isoindol-4-yl]-4-fluoropiperidin-4-yl}methyl)-3,9-diazaspiro[5.5]undecan-3-yl]pyrimidin-4-yl}amino)-2-oxo-1-(propan-2-yl)-1,2-dihydroquinolin-3-yl]oxy}-N-methylacetamide]
10 | < 10 | ≥ 70 | – | – | CNC(=O)COc1cc2cc(Nc3nc(N4CCC(O[C@H]5C[C@H](N6CCN(c7ccc8c(c7F)CN(C7CCC(=O)NC7=O)C8=O)C[C@@H]6C)C5)CC4)ncc3Cl)ccc2n(C(C)C)c1=O (some centres unmarked) [Compound 178]
11 | – | – | 50 to 70 | < 10 | CNC(=O)COc1cc2cc(Nc3nc(N4CCC(N5CCC6(C5)CN(C5CCN(c7ccc8c(c7)CN(C7CCC(=O)NC7=O)C8=O)CC5)C6)CC4)ncc3Cl)ccc2n(C(C)C)c1=O (centres unmarked) [Compound 235, 2-{[6-({5-chloro-2-[4-(2-{1-[2-(2,6-dioxopiperidin-3-yl)-1-oxo-2,3-dihydro-1H-isoindol-5-yl]piperidin-4-yl}-2,6-diazaspiro[3.4]octan-6-yl)piperidin-1-yl]pyrimidin-4-yl}amino)-2-oxo-1-(propan-2-yl)-1,2-dihydroquinolin-3-yl]oxy}-N-methylacetamide]
12 | < 10 | 50 to 70 | – | – | CNC(=O)COc1cc2cc(Nc3nc(N4CCC(CN5CC6(CCN(c7cc8c(c(OC)c7)C(=O)N(C7CCC(=O)NC7=O)C8)CC6)C5)CC4)ncc3Cl)ccc2n(C(C)C)c1=O (centres unmarked) [Compound 115, 2-{[6-({5-chloro-2-[4-({7-[2-(2,6-dioxopiperidin-3-yl)-7-methoxy-1-oxo-2,3-dihydro-1H-isoindol-5-yl]-2,7-diazaspiro[3.5]nonan-2-yl}methyl)piperidin-1-yl]pyrimidin-4-yl}amino)-2-oxo-1-(propan-2-yl)-1,2-dihydroquinolin-3-yl]oxy}-N-methylacetamide]
13 | – | – | 50 to 70 | < 10 | CNC(=O)COc1cc2cc(Nc3cc(N4CCC(CN5CCC6(CC5)CN(c5ccc7c(c5)CN(C5CCC(=O)NC5=O)C7=O)C6(C)C)CC4)ncc3Cl)ccc2n(C(C)C)c1=O (centres unmarked) [Compound 233, 2-{[6-({5-chloro-2-[4-({2-[2-(2,6-dioxopiperidin-3-yl)-1-oxo-2,3-dihydro-1H-isoindol-5-yl]-1,1-dimethyl-2,7-diazaspiro[3.5]nonan-7-yl}methyl)piperidin-1-yl]pyridin-4-yl}amino)-2-oxo-1-(propan-2-yl)-1,2-dihydroquinolin-3-yl]oxy}-N-methylacetamide]
14 | – | – | ≥ 70 | < 10 | CNC(=O)COc1cc2cc(Nc3nc(N4CCC(C(C)(C)N5CCC6(CC5)CN(c5c(OC)ccc7c5CN(C5CCC(=O)NC5=O)C7=O)C6)CC4)ncc3Cl)ccc2n(C(C)C)c1=O (centres unmarked) [Compound 327, 2-{[6-({5-chloro-2-[4-(2-{2-[2-(2,6-dioxopiperidin-3-yl)-5-methoxy-1-oxo-2,3-dihydro-1H-isoindol-4-yl]-2,7-diazaspiro[3.5]nonan-7-yl}propan-2-yl)piperidin-1-yl]pyrimidin-4-yl}amino)-2-oxo-1-(propan-2-yl)-1,2-dihydroquinolin-3-yl]oxy}-N-methylacetamide]
15 | – | – | 50 to 70 | 10 to 50 | CNC(=O)COc1cc2cc(Nc3nc(N4CCC(CN5CC(N6CCC(c7ccc8c(c7)C(=O)N(C7CCC(=O)NC7=O)C8=O)C(F)C6)C5)CC4)ncc3Cl)ccc2n(C(C)C)c1=O (centres unmarked) [Compound 213, 2-({6-[(5-chloro-2-{4-[(3-{4-[2-(2,6-dioxopiperidin-3-yl)-1,3-dioxo-2,3-dihydro-1H-isoindol-5-yl]-3-fluoropiperidin-1-yl}azetidin-1-yl)methyl]piperidin-1-yl}pyrimidin-4-yl)amino]-2-oxo-1-(propan-2-yl)-1,2-dihydroquinolin-3-yl}oxy)-N-methylacetamide]
16 | < 10 | 50 to 70 | – | – | CNC(=O)COc1cc2cc(Nc3nc(N4CCC(OC5CN([C@H]6CC[C@H](c7ccc8c(c7)CN(C7CCC(=O)NC7=O)C8=O)CC6)C5)CC4)ncc3Cl)ccc2n(C(C)C)c1=O (single isomer, unassigned) [Compound 165, 2-((6-((5-chloro-2-(4-((1-((1r,4r)-4-(2-(2,6-dioxopiperidin-3-yl)-1-oxoisoindolin-5-yl)cyclohexyl)azetidin-3-yl)oxy)piperidin-1-yl)pyrimidin-4-yl)amino)-1-isopropyl-2-oxo-1,2-dihydroquinolin-3-yl)oxy)-N-methylacetamide]
